What was measured:
HCC2429 cells = assay: Proliferation / cell viability assay (Cell Titer Glo) on HCC2429; format: cell-based; settings: FIG. 1; for IC50: 72 h incubation, ATP content by CTG; for effect on proliferation of HCC2429 cells, in words: dose response experiments
Method: Proliferation assays were performed as described below under materials and methods. […] (Cpd B1 and Ro-3306) were applied at concentrations between 30 and 0.0137 μM. After 72 h incubation with compounds ATP content/proliferation was determined employing CTG (Promega). Relative proliferation values (compared to vehicle control) were used to calculate IC50 values (Excel fit; algorithm #205). IC50s of the respective compound (Y-axis; logarithmic scale) on proliferation of various cell lines (X-axis) are depicted in black bars. White bars indicate that an IC50 could not be determined due to too low activity and therefore was higher than the highest applied concentration in the assays (30 μM). IC50s of compounds on CDK9 inhibitor sensitive cell line HCC2429 are presented in grey bars.
Cell lines were maintained in RPMI 1640 cell culture medium+glutamine (PAN Biotech GmbH, Aidenbach, Germany; order no. P04-22100; P04-05500) supplemented with 10% fetal calf serum “Gold” (PAA Laboratories GmbH, Pasching, Austria; order no. A15-151) and grown in a humidified atmosphere at 37° C., 5% CO2. As a first step, an optimal cell density for each cell line was determined to guarantee linearity. For viability assays with compounds, cells were then seeded at a density of 200 to 1000 per well in 25 μl in 384-well plates (Greiner Bio-One, Frickenhausen, Germany; order no. 781080). After overnight incubation at 37° C./5% CO2, 25 nl or 75 nl compounds were added to each sample well by using BIOMEK FX^P Laboratory Automation Workstation (Beckman Coulter, USA). Wells with cells and 0.1% or 0.3% DMSO in culture medium were used as positive controls, wells with cells and 10 μM staurosporine (Selleck Chemicals, Huston, USA) in culture medium were used as negative controls. Upon incubation with compounds for 72 h at 37° C./5% CO2 25 μl Cell Titer Glo reagent (Promega, Madison, USA, order no. G7573; 1:2 diluted with cell culture medium) was added to each well to determine cell viability. 384well-plates were placed for 2 min on an orbital microplate shaker and incubated for further 10 min at room temperature resulting in a stabilization of light signal. Luminescence was measured by Envision Plate Reader (Perkin Elmer, USA). IC50 values were calculated with the software Excel Fit (IDBS, Guildford, UK) from 3-fold dilution series comprising 8 concentrations in duplicates.

CDK9/CycT = target: T1, CDK9/CycT (Homo sapiens, UniProt P50750); assay: Radiometric protein kinase assay (33PanQinase Activity Assay), kinase selectivity; format: biochemical; settings: 23 different kinases, 10 μM compound versus DMSO control; FIG. 3
T1 construct: purchased ProQinase
Method: A radiometric protein kinase assay (33PanQinase® Activity Assay) was used for measuring the kinase activity of protein kinases employing exemplary CDK9 inhibitors to be used in the present invention (see FIG. 3). […] Activities of other kinases are not inhibited.
A similar experimental procedure is performed when the resulting activity within ^33PanQinase® assay is done. In advance buffers are prepared but in this case the pipetting sequence is first ATP solution diluted with assay buffer, DMSO or compound solution. The reaction (1 h at 30° C.) is started by addition of a substrate-kinase mix. During the incubation the kinase phosphorylates the substrate (different for each kinase). Due to the fact that the ATP solution contains ^33P-labelled ATP the substrate proteins are labeled with ^33P. The reaction is stopped by addition of excess H3PO4. If the reaction is performed in plates binding substrate proteins, said plates are washed to reduce unspecific signals (mainly not used ATP). […] Therefore, the incorporated radioactivity is detected by scintillation counting. Data is evaluated, processed and analyzed as described for the LANCE assays. […]
The reaction cocktails were incubated at 30° C. for 60 minutes. […] Incorporation of 33Pi (counting of “cpm”) was determined with a microplate scintillation counter (Microbeta, Wallac).

[1] = system: BrdNut mutated cell lines (HCC2429, TY-82, 690100, 143100); assay: Proliferation assay on Brd-4-Nut mutated versus wild type cell lines (FIG. 4); format: cell-based; settings: mutated: HCC2429, TY-82, 690100, 143100, wild type: Hela, HCC366, H460, HCC1143, hPBMCs
Method: The proliferation results are presented as IC50 in μM. First, the anti-proliferative effect of CDK9 inhibitors is much more pronounced on BrdNut mutated cell lines (=sensitive cell lines).
Cell lines were maintained in RPMI 1640 cell culture medium+glutamine (PAN Biotech GmbH, Aidenbach, Germany; order no. P04-22100; P04-05500) supplemented with 10% fetal calf serum “Gold” (PAA Laboratories GmbH, Pasching, Austria; order no. A15-151) and grown in a humidified atmosphere at 37° C., 5% CO2. As a first step, an optimal cell density for each cell line was determined to guarantee linearity. For viability assays with compounds, cells were then seeded at a density of 200 to 1000 per well in 25 μl in 384-well plates (Greiner Bio-One, Frickenhausen, Germany; order no. 781080). After overnight incubation at 37° C./5% CO2, 25 nl or 75 nl compounds were added to each sample well by using BIOMEK FX^P Laboratory Automation Workstation (Beckman Coulter, USA). Wells with cells and 0.1% or 0.3% DMSO in culture medium were used as positive controls, wells with cells and 10 μM staurosporine (Selleck Chemicals, Huston, USA) in culture medium were used as negative controls. […] Luminescence was measured by Envision Plate Reader (Perkin Elmer, USA). […]

CDK9/CyclinT1 = target: T2, CDK9/CyclinT1 (Homo sapiens, UniProt P50750); assay: Lance Ultra KinaSelect Assay, CDK9; format: biochemical; settings: FIG. 2
T2 construct: purchased Invitrogen
From the text: (§1) The principle behind this enzymatic assay is based upon the phosphorylation of the Ulight-Peptide Substrat. It is detected by using a specific EU-labeled anti-phospho peptide antibody. […] Binding of an inhibitor to the kinase prevents phosphorylation of the Ulight-MBP Substrat, resulting in a loss of FRET.
as §1
This compound predilution was then serial diluted 1:3 over 8 steps in DMSO and briefly spun down. Each compound solution was now diluted 1:20 in Enzymatic Buffer (HEPES: 50 mM, pH: 7.5; MgCl2: 10 mM; EGTA: 1 mM; DTT: 2 mM; Tween-20: 0.01%), mixed thoroughly and spun down.

T1 sequence (P50750 whole entry): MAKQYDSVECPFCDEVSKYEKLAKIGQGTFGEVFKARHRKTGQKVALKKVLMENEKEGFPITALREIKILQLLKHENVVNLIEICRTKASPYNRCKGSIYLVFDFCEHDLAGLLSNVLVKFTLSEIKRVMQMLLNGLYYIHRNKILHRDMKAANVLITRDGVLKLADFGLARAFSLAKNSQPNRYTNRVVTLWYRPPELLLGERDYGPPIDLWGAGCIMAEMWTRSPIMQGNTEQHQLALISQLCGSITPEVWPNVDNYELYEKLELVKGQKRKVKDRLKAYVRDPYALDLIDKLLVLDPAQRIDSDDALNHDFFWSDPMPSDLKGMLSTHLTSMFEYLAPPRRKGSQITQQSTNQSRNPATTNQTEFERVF
T1 sequence (O60563 whole entry partner): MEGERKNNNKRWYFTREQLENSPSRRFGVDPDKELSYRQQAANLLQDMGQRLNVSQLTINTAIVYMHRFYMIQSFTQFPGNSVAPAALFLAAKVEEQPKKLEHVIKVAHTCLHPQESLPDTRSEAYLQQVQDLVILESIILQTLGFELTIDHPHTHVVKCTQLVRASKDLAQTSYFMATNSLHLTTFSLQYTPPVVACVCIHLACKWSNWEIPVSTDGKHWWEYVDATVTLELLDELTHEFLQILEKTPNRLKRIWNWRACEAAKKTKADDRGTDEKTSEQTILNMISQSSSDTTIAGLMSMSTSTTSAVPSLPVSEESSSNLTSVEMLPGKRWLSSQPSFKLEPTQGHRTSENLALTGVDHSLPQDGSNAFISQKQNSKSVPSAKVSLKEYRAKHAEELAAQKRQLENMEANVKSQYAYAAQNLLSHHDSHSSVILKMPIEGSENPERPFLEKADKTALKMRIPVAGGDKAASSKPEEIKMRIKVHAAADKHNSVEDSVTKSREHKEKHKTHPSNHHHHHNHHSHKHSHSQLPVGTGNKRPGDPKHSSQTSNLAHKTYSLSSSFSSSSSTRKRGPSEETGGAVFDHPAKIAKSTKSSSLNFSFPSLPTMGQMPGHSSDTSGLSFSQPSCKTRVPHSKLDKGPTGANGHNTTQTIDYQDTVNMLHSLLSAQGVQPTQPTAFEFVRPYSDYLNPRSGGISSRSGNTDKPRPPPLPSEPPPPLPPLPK
T2 sequence (P50750 whole entry): as the sequence (P50750 whole entry) above
T2 sequence (O60563 whole entry partner): as the sequence (O60563 whole entry partner) above

IC50 (HCC2429 cells) | residual kinase activities / kinase selectivity, in words (CDK9/CycT) | IC50 (HCC2429 cells; Homo sapiens, HCC2429) | CDK9 inhibition potency, in words (CDK9/CyclinT1) | Structure (SMILES) | effect on proliferation of HCC2429 cells, in words (HCC2429 cells) | proliferation inhibition in mutated, sensitive cell lines compared with wild type cell lines, in words [1]
> 10000 nM |  |  |  | O=C1NC(=NCc2cccs2)S/C1=C\c1ccc2ncccc2c1 [Ro-3306] | did not show comparable effects | 
 | inhibits only CDK9 with high potency | 151 nM |  | COc1ccccc1-c1ncnc(Nc2cccc(CS(N)(=O)=O)c2)n1 [Cpd B1, 3-[(4-(2-Methoxyphenyl)-1,3,5-triazin-2-yl)amino]benzenemethanesulfonamide] | potently affected proliferation | 
 |  |  | relatively weak | COc1ccccc1-c1cc(Nc2cccc(CS(N)(=O)=O)c2)ncn1 [1073485-20-7P, 3-[[6-(2-methoxyphenyl)-4-pyrimidinyl]amino]-Benzenemethanesulfonamide] |  | much more potent in mutated, sensitive cell lines

Reference: patent publication US20140287454A1, “SUSCEPTIBILITY TO SELECTIVE CDK9 INHIBITORS” (MAX-PLANCK-GESELLSCHAFT ZUR FÖRDERUNG DER WISSENSCHAFTEN …, priority 2011, published 2014)
